Experimental data taken from patent US6319702A, “Nucleic acids encoding mutant human carboxypeptidase A enzymes” (Glaxo Wellcome, Inc., priority 1993, dated 2001).
Read-outs that look alike come from different tables or passages of the source.

Assay: Stability and biodistribution of prodrugs in vivo (HPLC of plasma and tissues)
Parameters: species or system mice (CD-1 nude; BALB/C where indicated)
Settings: 50 mg/kg i.p. or i.v., CD-1 nude mice; for remaining at 0.5 h / remaining at 2 h / concentration at 0.5 h / concentration at 2 h: mouse, 50 mg/kg; for concentration at 0.5 h / concentration at 2 h: read-out: concentration of prodrug in plasma
[1] = cecum, CECUM, 30 min, read-out: stability: percentage of material observed as intact prodrug, cecum
[2] = cecum, CECUM, 120 min, read-out: stability: percentage of material observed as intact prodrug, cecum
[3] = kidney, KIDNEY, 30 min, read-out: stability: percentage of material observed as intact prodrug, kidney
[4] = kidney, KIDNEY, 120 min, read-out: stability: percentage of material observed as intact prodrug, kidney
[5] = large intestine, LARGE INTESTINE, 30 min, read-out: stability: percentage of material observed as intact prodrug, large intestine
[6] = large intestine, LARGE INTESTINE, 120 min, read-out: stability: percentage of material observed as intact prodrug, large intestine
[7] = liver, LIVER, 30 min, read-out: stability: percentage of material observed as intact prodrug, liver (converted)
[8] = liver, LIVER, 120 min, read-out: stability: percentage of material observed as intact prodrug, liver
[9] = plasma, PLASMA, 30 min, read-out: stability: percentage of material observed as intact prodrug, plasma
[10] = plasma, PLASMA, 120 min, read-out: stability: percentage of material observed as intact prodrug, plasma
[11] = small intestine, SMALL INTESTINE, 30 min, read-out: stability: percentage of material observed as intact prodrug, small intestine
[12] = small intestine, SMALL INTESTINE, 120 min, read-out: stability: percentage of material observed as intact prodrug, small intestine
[13] = spleen, SPLEEN, 30 min, read-out: stability: percentage of material observed as intact prodrug, spleen
[14] = spleen, SPLEEN, 120 min, read-out: stability: percentage of material observed as intact prodrug, spleen
[15] = tumor, TUMOR, 30 min, read-out: stability: percentage of material observed as intact prodrug, tumor
[16] = tumor, TUMOR, 120 min, read-out: stability: percentage of material observed as intact prodrug, tumor

Structure (SMILES) | concentration of prodrug in cecum (CECUM, 30 min) [nmol/g] | concentration of prodrug in cecum (CECUM, 120 min) [nmol/g] | concentration of prodrug in kidney (KIDNEY, 30 min) [nmol/g] | concentration of prodrug in kidney (KIDNEY, 120 min) [nmol/g] | concentration of prodrug in large intestine (LARGE INTESTINE, 30 min) [nmol/g] | concentration of prodrug in large intestine (LARGE INTESTINE, 120 min) [nmol/g] | concentration of prodrug in liver (LIVER, 30 min) [nmol/g] | concentration of prodrug in liver (LIVER, 120 min) [nmol/g] | concentration of prodrug in small intestine (SMALL INTESTINE, 30 min) [nmol/g] | concentration of prodrug in small intestine (SMALL INTESTINE, 120 min) [nmol/g] | concentration of prodrug in spleen (SPLEEN, 30 min) [nmol/g] | concentration of prodrug in tumor (TUMOR, 30 min) [nmol/g] | concentration of prodrug in tumor (TUMOR, 120 min) [nmol/g] | remaining at 0.5 h [1] [%] | remaining at 2 h [2] [%] | remaining at 0.5 h [3] [%] | remaining at 2 h [4] [%] | remaining at 0.5 h [5] [%] | remaining at 2 h [6] [%] | remaining at 0.5 h [7] [%] | also measured
Cc1nc2ccc3ccc(CNc4ccc(C(=O)N[C@@H](CCC(=O)O)C(=O)N[C@@H](Cc5ccccc5I)C(=O)O)c(F)c4)cc3c2c(=O)[nH]1 [Prodrug 5] | 4.7 | 2.9 | 42.5 | 3.0 | 28.4 | 1.6 | 118.2 | 7.5 | 32.1 | 1.6 | 34.3 | 4.7 | 2.9 | 95 | 88 | 83 | 96 | 93 | 8 | 81 | concentration of prodrug in spleen (SPLEEN, 120 min): 3.2 nmol/g; remaining at 2 h [8]: 41%; concentration at 0.5 h (plasma, PLASMA, 30 min): 115 µM; remaining at 0.5 h [9]: 98%; concentration at 2 h (plasma, PLASMA, 120 min): 9.4 µM; remaining at 2 h [10]: 95%; remaining at 0.5 h [11]: 40%; remaining at 2 h [12]: 2%; remaining at 0.5 h [13]: 85%; remaining at 2 h [14]: 81%; remaining at 0.5 h [15]: 95%; remaining at 2 h [16]: 88%
Cc1nc2ccc3ccc(CNc4ccc(C(=O)N[C@@H](CCC(=O)O)C(=O)N[C@@H](Cc5ccccc5C(=O)O)C(=O)O)c(F)c4)cc3c2c(=O)[nH]1 [Prodrug 4, N-(N-(4(((1,2-dihydro-3-methyl-1-oxobenzo(F)quinazolin-9-yl)methyl)amino)-2-fluorobenzoyl)-L-glutam-1-yl)-2-carboxy-L-phenylanine] | 6.7 | 1.3 | 94.5 | 14.5 | 25.3 | 45.4 | 343.4 | 33.3 | 188.1 | 69.1 | 30.9 | 6.7 | 1.3 | 100 | 100 | 100 | 99 | 100 | 100 | 99 | remaining at 2 h [8]: 98%; concentration at 0.5 h (plasma, PLASMA, 30 min): 71.4 µM; remaining at 0.5 h [9]: 100%; concentration at 2 h (plasma, PLASMA, 120 min): 1.4 µM; remaining at 2 h [10]: 99%; remaining at 0.5 h [11]: 99%; remaining at 2 h [12]: 98%; remaining at 0.5 h [13]: 99%; remaining at 0.5 h [15]: 100%; remaining at 2 h [16]: 100%
CN(Cc1cnc2nc(N)nc(N)c2n1)c1ccc(C(=O)N[C@@H](CCC(=O)O)C(=O)N[C@@H](Cc2ccccc2C(=O)O)C(=O)O)cc1 [Prodrug 7] | 6.9 | 1.5 | 55.4 | 3.8 | 12.1 | 91.8 | 171.9 | 7.5 | 127.4 | 24.1 | 12.4 | 6.9 | 1.5 | 100 | 100 | 100 | 100 | 100 | 100 | 100 | concentration of prodrug in spleen (SPLEEN, 120 min): 1.0 nmol/g; remaining at 2 h [8]: 89%; concentration at 0.5 h (plasma, PLASMA, 30 min): 51.4 µM; remaining at 0.5 h [9]: 100%; concentration at 2 h (plasma, PLASMA, 120 min): 0.2 µM; remaining at 2 h [10]: 100%; remaining at 0.5 h [11]: 100%; remaining at 2 h [12]: 97%; remaining at 0.5 h [13]: 100%; remaining at 2 h [14]: 100%; remaining at 0.5 h [15]: 100%; remaining at 2 h [16]: 100%
